pIC50: −log10 of the molar value. Converted amounts (≈) assume the structure as drawn.
What was measured:
A. baumannii 1258916 = assay: microbe, parasite or virus in culture; assay type: cell-based, Acinetobacter baumannii; conditions: Acinetobacter baumannii, 1258916, read-out: MIC, A. baumannii 1258916
N. gonorrhoeae CDC-0197 = assay: Liquid broth MIC in Fastidious broth; conditions: Neisseria gonorrhoeae, CDC0197, read-out: Minimum Inhibitory Concentration (MIC), N. gonorrhoeae CDC-0197
A. baumannii ATCC 19606 = assay: microbe, parasite or virus in culture; assay type: cell-based; conditions: Acinetobacter baumannii, ATCC19606, read-out: MIC, A. baumannii ATCC 19606
N. gonorrhoeae MS11 = assay: Liquid broth MIC in Fastidious broth; conditions: Neisseria gonorrhoeae, MS11, read-out: Minimum Inhibitory Concentration (MIC), N. gonorrhoeae MS11
A. baumannii CDC-0036 = assay: microbe, parasite or virus in culture; assay type: cell-based; conditions: Acinetobacter baumannii, CDC0036, read-out: MIC, A. baumannii CDC-0036
P. aeruginosa ATCC 35151 = assay: microbe, parasite or virus in culture; assay type: cell-based; conditions: Pseudomonas aeruginosa, ATCC35151, read-out: Minimum inhibitory concentration, P. aeruginosa ATCC 35151
P. aeruginosa CDC-0095 = assay: microbe, parasite or virus in culture; assay type: cell-based; conditions: Pseudomonas aeruginosa, CDC0095, read-out: Minimum inhibitory concentration, P. aeruginosa CDC-0095
A. baumannii CDC-0033 = assay: microbe, parasite or virus in culture; assay type: cell-based; conditions: Acinetobacter baumannii, CDC0033, read-out: MIC, A. baumannii CDC-0033
A. baumannii CDC-0083 = assay: microbe, parasite or virus in culture; assay type: cell-based; conditions: Acinetobacter baumannii, CDC0083, read-out: MIC, A. baumannii CDC-0083
[1] = tested on: N. gonorrhoeae ATCC 49226; assay: Liquid broth MIC in Fastidious broth; conditions: Neisseria gonorrhoeae, ATCC49226, read-out: Minimum Inhibitory Concentration (MIC), N. gonorrhoeae ATCC 49226
P. aeruginosa CDC-0110 = assay: microbe, parasite or virus in culture; assay type: cell-based; conditions: Pseudomonas aeruginosa, CDC0110, read-out: Minimum inhibitory concentration, P. aeruginosa CDC-0110
A. baumannii ATCC 17978 = assay: microbe, parasite or virus in culture; assay type: cell-based; conditions: Acinetobacter baumannii, ATCC17978, read-out: MIC, A. baumannii ATCC 17978
[2] = target: T1, PBP3 from Pseudomonas aeruginosa (PAO1) (Pseudomonas aeruginosa, UniProt G3XD46); assay: Bocillin-FL fluorescence polarization competition binding, P. aeruginosa PBP3; conditions: Binding affinity to P. aeruginosa PBP3; fluorescence polarization competition binding assay using Bocillin-FL; read-out: P. aeruginosa PBP3 Potency
T1 construct: made in house
Procedure, shortened: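 Purified PBPs pre-incubated with inhibitor (E. coli PBP3 1.5 μM, 30 min; P. aeruginosa PBP3 0.75 μM, A. baumannii PBP1a 1 μM and PBP3 0.2 μM, 15 min), then Bocillin-FL 0.1 μM (0.05 μM for PBP1a) added; FP read up to 60 min. EC50 = concentration halving bound Bocillin-FL.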

N. gonorrhoeae WHO X = assay: Liquid broth MIC in Fastidious broth; conditions: Neisseria gonorrhoeae, read-out: Minimum Inhibitory Concentration (MIC), N. gonorrhoeae WHO X
N. gonorrhoeae WHO M = assay: Liquid broth MIC in Fastidious broth; conditions: Neisseria gonorrhoeae, read-out: Minimum Inhibitory Concentration (MIC), N. gonorrhoeae WHO M

T1 sequence (G3XD46 whole entry): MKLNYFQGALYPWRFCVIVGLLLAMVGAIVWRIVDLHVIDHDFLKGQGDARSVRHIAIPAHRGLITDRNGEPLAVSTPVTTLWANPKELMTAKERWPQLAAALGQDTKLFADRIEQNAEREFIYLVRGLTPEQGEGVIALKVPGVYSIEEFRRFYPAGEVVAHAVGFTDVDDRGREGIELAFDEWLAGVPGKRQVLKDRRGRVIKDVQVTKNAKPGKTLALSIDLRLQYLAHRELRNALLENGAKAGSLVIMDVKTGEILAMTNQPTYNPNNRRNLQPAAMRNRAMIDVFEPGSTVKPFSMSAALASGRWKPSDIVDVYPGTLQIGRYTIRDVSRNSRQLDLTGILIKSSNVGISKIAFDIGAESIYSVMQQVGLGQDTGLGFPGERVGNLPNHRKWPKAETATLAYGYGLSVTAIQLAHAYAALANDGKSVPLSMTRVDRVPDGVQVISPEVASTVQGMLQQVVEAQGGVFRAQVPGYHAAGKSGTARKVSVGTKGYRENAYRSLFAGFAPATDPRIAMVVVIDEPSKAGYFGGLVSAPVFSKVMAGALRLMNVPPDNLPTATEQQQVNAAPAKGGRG

Row | SMILES | MIC (A. baumannii 1258916) [µg/mL] | MIC (N. gonorrhoeae CDC-0197) [µg/mL] | MIC (A. baumannii ATCC 19606) [µg/mL] | MIC (N. gonorrhoeae MS11) [µg/mL] | MIC (A. baumannii CDC-0036) [µg/mL] | MIC (P. aeruginosa ATCC 35151) [µg/mL] | MIC (P. aeruginosa CDC-0095) [µg/mL] | MIC (A. baumannii CDC-0033) [µg/mL] | MIC (A. baumannii CDC-0083) [µg/mL] | MIC [1] [µg/mL] | MIC (P. aeruginosa CDC-0110) [µg/mL] | MIC (A. baumannii ATCC 17978) [µg/mL] | pIC50 [2] | MIC (N. gonorrhoeae WHO X) [µg/mL] | MIC (N. gonorrhoeae WHO M) [µg/mL]
1 | O=C(CN1CCN(C(=O)NC(C(=O)N[C@H]2Cc3ccc(F)c(C(=O)O)c3OB2O)c2cc(F)c(O)c(O)c2Cl)C(=O)C1=O)NCc1cccc(O)c1 (stereo partly drawn) [Example 237, (3R)-3-(2-(2-chloro-5-fluoro-3,4-dihydroxyphenyl)-2-(4-(2-((3-hydroxybenzyl)amino)-2-oxoethyl)-2,3-dioxopiperazine-1-carboxamido)acetamido)-7-fluoro-2-hydroxy-3,4-dihydro-2H-benzo[e][1,2]oxaborinine-8-carboxylic acid] | 2 to 4 (≈ 2.68 to 5.36 µM) | 16 to 32 (≈ 21.5 to 42.9 µM) | < 1 | 16 to 32 (≈ 21.5 to 42.9 µM) | 8 to 16 (≈ 10.7 to 21.5 µM) | < 1 | 2 to 4 (≈ 2.68 to 5.36 µM) | 8 to 16 (≈ 10.7 to 21.5 µM) | > 128 | 16 to 32 (≈ 21.5 to 42.9 µM) | < 1 | < 1 | > 5.00 | > 64 | 4 to 8 (≈ 5.36 to 10.7 µM)
2 | O=C(CN1CCN(C(=O)NC(C(=O)N[C@H]2Cc3ccc(F)c(C(=O)O)c3OB2O)c2cc(F)c(O)c(O)c2Cl)C(=O)C1=O)NCc1ccccc1 (stereo partly drawn) [Example 238] | 2 to 4 (≈ 2.74 to 5.48 µM) | 16 to 32 (≈ 21.9 to 43.8 µM) | < 1 | 16 to 32 (≈ 21.9 to 43.8 µM) | 8 to 16 (≈ 11 to 21.9 µM) | < 1 | 2 to 4 (≈ 2.74 to 5.48 µM) | 8 to 16 (≈ 11 to 21.9 µM) | > 128 | 16 to 32 (≈ 21.9 to 43.8 µM) | < 1 | < 1 | > 5.00 | > 64 | 4 to 8 (≈ 5.48 to 11 µM)
3 | O=C(CN1CCN(C(=O)N[C@@H](C(=O)N[C@H]2Cc3ccc(F)c(C(=O)O)c3OB2O)c2cc(F)c(O)c(O)c2Cl)C(=O)C1=O)NCc1ccncc1 [Example 239, (R)-3-((R)-2-(2-chloro-5-fluoro-3,4-dihydroxyphenyl)-2-(2,3-dioxo-4-(2-oxo-2-((pyridin-4-ylmethyl)amino)ethyl)piperazine-1-carboxamido)acetamido)-7-fluoro-2-hydroxy-3,4-dihydro-2H-benzo[e][1,2]oxaborinine-8-carboxylic acid] | < 1 | 16 to 32 (≈ 21.9 to 43.8 µM) | < 1 | 16 to 32 (≈ 21.9 to 43.8 µM) | 2 to 4 (≈ 2.74 to 5.47 µM) | < 1 | 2 to 4 (≈ 2.74 to 5.47 µM) | 8 to 16 (≈ 10.9 to 21.9 µM) | < 1 | 16 to 32 (≈ 21.9 to 43.8 µM) | < 1 | < 1 | > 5.00 | > 64 | 4 to 8 (≈ 5.47 to 10.9 µM)
4 | O=C(CN1CCN(C(=O)NC(C(=O)N[C@H]2Cc3ccc(F)c(C(=O)O)c3OB2O)c2cc(F)c(O)c(O)c2Cl)C(=O)C1=O)NCc1cccnc1 (stereo partly drawn) [Example 240, (3R)-3-(2-(2-chloro-5-fluoro-3,4-dihydroxyphenyl)-2-(2,3-dioxo-4-(2-oxo-2-((pyridin-3-ylmethyl)amino)ethyl)piperazine-1-carboxamido)acetamido)-7-fluoro-2-hydroxy-3,4-dihydro-2H-benzo[e][1,2]oxaborinine-8-carboxylic acid] | < 1 | 16 to 32 (≈ 21.9 to 43.8 µM) | < 1 | 16 to 32 (≈ 21.9 to 43.8 µM) | 2 to 4 (≈ 2.74 to 5.47 µM) | < 1 | 2 to 4 (≈ 2.74 to 5.47 µM) | 2 to 4 (≈ 2.74 to 5.47 µM) | > 128 | 16 to 32 (≈ 21.9 to 43.8 µM) | < 1 | < 1 | > 5.00 | > 64 | 4 to 8 (≈ 5.47 to 10.9 µM)

Reference: patent US20240270762A1, “PENICILLIN-BINDING PROTEIN INHIBITORS” (priority 2021, published 2024)
